This note sets out measurements from patent US10240210B2, “Methods of stratifying patients for treatment with retinoic acid receptor-alpha agonists” (Syros Pharmaceuticals, Inc., priority 2016, dated 2019).

One test has as its system MV4-11. As to the kind of experiment: AML cell line anti-proliferation (cell viability, ATPlite or CyQuant). The class given is cell-based, human. In general terms: In ATP-based viability assays light output follows the ATP content of the culture.
For the next test, the system named is HL60. Described as above. The following applies: Homo sapiens, HL-60, 240 h; HL60 (APL cell line); five or ten days incubation; read-out: Tamibarotene anti-proliferative potency (EC50). The format is cell-based.
In the next test the test system is AM5512 xenografts. As to the kind of experiment: AML patient sample-derived xenograft model. The class given is in vivo, BALB/c nude immunocompromised mice. The following applies: 6 mg per kg orally daily, after 35 days of treatment. The procedure: (§1) Different AML patient sample (AM8096, AM5512, AM7577 and AM7440)-derived xenograft models in BALB/c nude immunocompromised mice are prepared by Crown Biosciences (Beijing, China) essentially as follows.
(§2) Approximately 2×10^6 cells from each patient sample are suspended in 100 μL PBS and injected into separate mice (n=3 for each different patient sample and for the control) by IV tail injection. For AM5512, AM7577 and AM7440 xenografts, tumor burden is considered high enough to start treatment when the concentration of human CD45^+ cells reaches ˜1-5% in the animal's peripheral blood. Human CD45^+ cells are detected in mouse blood (obtained via eye bleeds) using a fluorescence activated cell sorter and FITC anti-human CD45 (Biolegend, Cat#304037). For AM8096 xenografts, treatment is begun 40 days after injection of cells.
(§3) Tamibarotene is administered orally in pH 8 adjusted PBS, 1% DMSO on a daily schedule at a final dose of 6 mg per kg body weight in a 10 ml/kg volume. Mice in the vehicle arm are given the same schedule, volume, and formulation, but lacking tamibarotene. Human CD45^+ cell levels in peripheral blood from the treated animals and control animals are measured once a week.
(In general: In xenograft studies the graft and the host belong to different species.)

In a further test the test system is AM7440 xenografts. As to the kind of experiment: AML patient sample-derived xenograft model. The class given is in vivo, BALB/c nude immunocompromised mice. The following applies: 6 mg per kg orally daily. The method, then:
as §1, §2, §3

For another test, the system named is AM7577 xenografts. The test is described as follows: AML patient sample-derived xenograft model. The class given is in vivo, BALB/c nude immunocompromised mice. The following applies: 6 mg per kg orally daily. The procedure:
as §1, §2, §3

Another test concerns AM8096 xenografts. The test is described as follows: AML patient sample-derived xenograft model. The format is in vivo, BALB/c nude immunocompromised mice. The following applies: 6 mg per kg orally daily, after 35 days of treatment. The procedure:
as §1, §2, §3

The test system of the next test is OCI-AML3. As to the kind of experiment: AML cell line anti-proliferation (cell viability, ATPlite or CyQuant). The format is cell-based, human.
A further test has as its system PL21. The description is as above. The format is cell-based. The following applies: Homo sapiens, PL-21, 240 h, five or ten days incubation, read-out: Tamibarotene anti-proliferative potency (EC50).
For another test, the system named is THP-1. The description is as above. The class given is cell-based. Particulars: Homo sapiens, 240 h; THP-1 AML cell line; five or ten days incubation; read-out: Tamibarotene anti-proliferative potency (EC50).
The next test deals with OCI-M1. The description is as above. The class given is cell-based, human.
In the next test the test system is Sig-M5. The description is as above. The class given is cell-based, human.
In the next test the test system is Kasumi-1. The test is described as above. The format is cell-based, human.
The subject of a further test is EOL-1. Described as above. The class given is cell-based. The following applies: Homo sapiens, EOL1, 240 h; EOL-1 AML cell line; five or ten days incubation; read-out: Tamibarotene anti-proliferative potency (EC50).
The test system of a further test is HEL. The description is as above. The format is cell-based. The following applies: Homo sapiens, 240 h, five or ten days incubation, read-out: Tamibarotene anti-proliferative potency (EC50).
The test system of another test is Nomo-1. Described as above. The format is cell-based, human.
The test system of a further test is OCI-AML2. The test is described as above. The class given is cell-based. Particulars: Homo sapiens, 240 h, five or ten days incubation, read-out: Tamibarotene anti-proliferative potency (EC50).
A further test deals with KG-1a. Described as above. The format is cell-based, human.

Each structure is given as a SMILES string.

In general, EC50 refers to the midpoint of the concentration-response curve. Turning to `CC1(C)CCC(C)(C)c2cc(NC(=O)c3ccc(C(=O)O)cc3)ccc21` [tamibarotene], the EC50 in the test with MV4-11 (Homo sapiens, 240 h, MV4-11 AML cell line, five or ten days incubation, read-out: Tamibarotene anti-proliferative potency (EC50)) was 0.17 nM; in the test with HL60, 1.64 nM; in the test on OCI-AML3 (Homo sapiens, OCI-AML-3, 240 h, OCI-AML3 AML cell line, five or ten days incubation, read-out: Tamibarotene anti-proliferative potency (EC50)), 0.34 nM; with PL21 it was 1.41 nM; in the test with THP-1 it was 0.95 nM; in the test with OCI-M1 (Homo sapiens, 240 h, OCI-M1 AML cell line, five or ten days incubation, read-out: Tamibarotene anti-proliferative potency (EC50)), greater than 50000 nM. Besides, the concentration giving a half-maximal response (EC50) is 0.46 nM in the test on Sig-M5 (Homo sapiens, 240 h, Sig-M5 AML cell line, five or ten days incubation, read-out: Tamibarotene anti-proliferative potency (EC50)); greater than 50000 nM in the test with Kasumi-1 (Homo sapiens, 240 h, Kasumi-1 AML cell line, five or ten days incubation, read-out: Tamibarotene anti-proliferative potency (EC50)); 0.89 nM with EOL-1; greater than 50000 nM with HEL; 0.48 nM in the test with Nomo-1 (Homo sapiens, 240 h, Nomo-1 AML cell line, five or ten days incubation, read-out: Tamibarotene anti-proliferative potency (EC50)); 0.34 nM in the test on OCI-AML2. Besides, in the test on KG-1a (Homo sapiens, 240 h, KG-1a AML cell line, five or ten days incubation, read-out: Tamibarotene anti-proliferative potency (EC50)), the concentration giving a half-maximal response (EC50) was greater than 50000 nM. Also, the “sensitivity of cell line to tamibarotene” value in the test with MV4-11 (MV-4-11) was “sensitive”; in the test on OCI-AML3 (OCI-AML3), “sensitive”; in the test on OCI-M1 (OCI-M1), “insensitive”; in the test with Sig-M5 (Sig-M5) it was “sensitive”; with Kasumi-1 (Kasumi-1), “insensitive”; in the test on Nomo-1 (NOMO-1), “sensitive”. Besides, the “sensitivity of cell line to tamibarotene” value in the test on KG-1a (KG1a) is recorded as “insensitive”. For the same compound, the “total % of CD45+ cells and % of CD45+ cells in blood, bone marrow and spleen, compared to the vehicle control” value in the test on AM5512 xenografts and in the test on AM8096 xenografts was “significant reduction” in each case. Besides, the “tumor volume between tamibarotene treated and vehicle treated animals, overall or in blood, bone marrow or spleen” value with AM7440 xenografts and in the test on AM7577 xenografts was “no significant reduction” each time.
